Reference: a melting point compilation (Tetko et al.)

Row | SMILES | melting point [°C]
1 | Cc1sc2nc(CC#N)[nH]c(=O)c2c1C | 283 to 285
2 | Cc1ccc(-c2ccc(C=O)s2)cc1 | 87 to 89
3 | CCCC1(C)NC(=O)NC1=O (stereo unspecified) | 123 to 125
4 | CN(C)c1ccc(C=C(C#N)C(=O)O)cc1 | 224 to 226
5 | O=C(CBr)c1sccc1Br | 60 to 62
6 | Clc1ncnc2c(Br)cccc12 | 159 to 161
7 | COc1cc(C(=O)O)ccc1OCc1c(C)noc1C | 216 to 218
8 | N#CC(C(=O)N1CCCCC1)c1ccc(C(F)(F)F)cn1 (stereo unspecified) | 137 to 139
9 | N#CCOc1ccc(N)cc1 | 51 to 53
10 | CC(O)C(NC(=O)C1CCCC1)C(=O)O (stereo unspecified) | 145 to 147
11 | CCc1ccc(N)cc1S(N)(=O)=O | 136 to 138
12 | O=C(O)C1CCN(c2ncc(C(F)(F)F)cc2Cl)CC1 | 134 to 136
13 | O=S1(=O)CC(O)C(S(=O)(=O)Cl)C1 (stereo unspecified) | 111 to 113
14 | Cc1cc(N2CCCC2=O)ccc1Br | 107 to 109
15 | O=C(O)CCNC(=O)c1ccc2cn[nH]c2c1 | 234 to 236
16 | NNC(=S)NC1CCC1 | 96 to 98
17 | CCC(C)(CNC(=O)OC(C)(C)C)C(=O)O (stereo unspecified) | 113 to 115
18 | CC(C)CNc1nnc(S)s1 | 155 to 157
19 | N#Cc1cc(Cl)ccc1S(=O)(=O)Cl | 97 to 99
20 | CS(=O)(=O)CCCOc1cccc2c1CCC2O (stereo unspecified) | 77 to 79
21 | CCOC(=O)/C(C#N)=C\Nc1ccc(C)cc1 | 134 to 136
22 | Cc1nc(N)nc2c1CCCC2 | 181 to 185
23 | Cc1ccn(-c2cccc(C(=O)O)c2)n1 | 198 to 200
24 | CC(C)(C)c1nccc(=O)[nH]1 | 205 to 207
25 | O=S(=O)(c1ccc(S)nc1)N1CCCCC1 | 218 to 221

Row | SMILES | melting point [°C]
26 | Cc1cc(S(=O)(=O)Cl)cc(C(=O)O)c1F | 169 to 171
27 | COc1ncncc1N | 71 to 73
28 | NCc1ccc(S(=O)(=O)N2CCOCC2)cc1 | 121 to 123
29 | O=C(O)c1ncoc1-c1ccccc1Cl | 194 to 196
30 | O=C(O)c1cnc2sc(Cc3ccccc3)cn2c1=O | 197 to 199
31 | CC(=O)N1CCN(C(=O)CCC(=O)O)CC1 | 110 to 116
32 | C=CCNC(=O)c1ccc(Cl)nc1 | 105 to 107
33 | NC(=O)c1cc(N)c(F)cc1F | 169 to 171
34 | O=C(Cc1nc2ccccc2[nH]1)c1ccccc1 | 180 to 182
35 | O=C(O)c1cncs1 | 169 to 171
36 | Cc1cc(NC(N)=S)n(C)n1 | 218 to 220
37 | Nc1ccc(F)cc1-c1ccc(Cl)cc1 | 54 to 56
38 | CC(C)(C)c1cc(C(=O)O)cc(C(=O)O)c1 | 300 to 302
39 | N#Cc1ccc(N2CCCC(N)C2=O)cc1 (stereo unspecified) | 101 to 103
40 | COc1ccc(S(=O)(=O)NC(CCC(N)=O)C(=O)O)cc1 (stereo unspecified) | 171 to 173
41 | CC1Cc2ccccc2N1S(=O)(=O)c1cccc(C(=O)O)c1 (stereo unspecified) | 170 to 172
42 | O=C(O)C1CCN(c2cccc(Cl)c2)C1=O (stereo unspecified) | 113 to 115
43 | COc1cc(C)cc(C(=O)O)c1O | 189 to 191
44 | COC(=O)c1nnc2c(Cl)cccn12 | 52 to 55
45 | O=c1oc2ccccc2nc1NO | 254 to 256
46 | O=S(=O)(c1ccc(Cl)nc1)N1CCOCC1 | 143 to 145
47 | O=C(O)c1cccc(OCc2cn3ccccc3n2)c1 | 197 to 199
48 | Nc1nccc(-c2ccccc2)n1 | 162 to 164
49 | O=C(O)c1ccc(F)c(COc2ccc(F)cc2)c1 | 149 to 151
50 | O=C(O)C1CCCN1C(=O)C12CC3CC(CC(C3)C1)C2 (stereo unspecified) | 193 to 195

Row | SMILES | melting point [°C]
51 | O=C(O)C1CC1c1cccc(Br)c1 (stereo unspecified) | 115 to 117
52 | NC(=NO)c1ccc(Oc2ccc(F)cc2)nc1 | 194 to 196
53 | OCc1cn(-c2ccccc2Cl)nn1 | 87 to 89
54 | CC(C)(NC(=O)NCc1cccc(Br)c1)C(=O)O | 159 to 161
55 | Cc1oc(C)c(C(=O)O)c1Br | 189 to 191
56 | N#CC1(N2CCNCC2)CCCCC1 | 82 to 84
57 | Cc1c(S(=O)(=O)Cl)cnn1-c1ccccn1 | 53 to 55
58 | CS(=O)(=O)Nc1cc(C(=O)O)ccc1F | 250 to 252
59 | Nc1cc(CCc2ccccc2)[nH]n1 | 58 to 60
60 | NC(=NO)c1ccc([N+](=O)[O-])cc1 | 187 to 189
61 | O=C(O)c1cccc(CN2CCCC2)c1 | 196 to 198
62 | COc1ccc(COc2cccc(F)c2)cc1N | 57 to 59
63 | O=C(O)COc1ccc2c(c1)CCC2 | 154 to 156
64 | Cc1cc(C(=O)O)c2c(C3CC3)noc2n1 | 201 to 203
65 | COC(=O)c1cc(S(=O)(=O)Cl)c(C(=O)OC)s1 | 129 to 131
66 | CCCc1ccccc1NC(N)=S | 116 to 118
67 | Cc1cc2ncc(S(C)(=O)=O)c(N)n2n1 | 208 to 210
68 | Cc1ccc(NC(=O)C2CCCNC2)nc1 (stereo unspecified) | 144 to 146
69 | c1ccc2[nH]c(C3CCCCN3)cc2c1 (stereo unspecified) | 151 to 153
70 | CS(=O)(=O)Nc1ccc(CCl)cc1 | 107 to 109
71 | NC(=O)Nc1ccccc1[N+](=O)[O-] | 186 to 188
72 | CC(C)(C)OC(=O)NC1CN(c2ccccc2)C1=O (stereo unspecified) | 167 to 169
73 | Cc1nc(C)c(NC(=O)OC(C)(C)C)s1 | 90 to 92
74 | Cc1cc(OC(C)C(=O)O)ccc1C(C)C (stereo unspecified) | 92 to 94
75 | NCc1ccc(Oc2ccc(F)cc2)nc1 | 51 to 53

Row | SMILES | melting point [°C]
76 | COc1cccc(-c2nonc2N)c1 | 74 to 76
77 | Nc1c([N+](=O)[O-])cc(F)c(F)c1Br | 104 to 106
78 | Cc1ccc(NC(=O)C2(CN)CCCC2)cc1C | 113 to 115
79 | O=C(O)c1ncc(Cl)cc1Cl | 139 to 141
80 | FC(F)(F)CNc1nnc(S)s1 | 178 to 180
81 | CCOP(=O)(Cc1cc(Cl)ccc1Cl)OCC | 53 to 55
82 | O=C(Nc1ccc(C(=O)O)c(O)c1)c1cc(F)cc(F)c1 | 269 to 271
83 | O=C1CCNc2ccccc2N1 | 132 to 134
84 | O=C(O)CCc1cc(Br)cs1 | 76 to 78
85 | Cc1ccc(N)cc1N1CCOC1=O | 130 to 132
86 | CC(C)S(=O)(=O)c1ccc(Cl)c(C(=O)O)c1 | 129 to 131
87 | O=C1NCCCc2sccc21 | 89 to 91
88 | CC(Cl)c1ncc(-c2ccccc2)o1 (stereo unspecified) | 54 to 56
89 | Cc1cc(C(=O)O)c2c(C)n[nH]c2n1 | 299 to 301
90 | COC(=O)C(C)Oc1ccc(F)cc1Br (stereo unspecified) | 38 to 40
91 | Cn1cnnc1-c1ccccc1 | 114 to 116
92 | O=C(O)c1ccc2c(=O)n3c(nc2c1)CCC3 | 354 to 356
93 | Cc1ccc(-c2cc(N)nc(-c3ccccc3)c2)cc1 | 110 to 112
94 | CCN1CCCC1CNC(=O)C1CCNCC1 (stereo unspecified) | 191 to 194
95 | Cc1cnc2c(c1)NCCO2 | 109 to 111
96 | CCS(=O)(=O)c1cc(F)ccc1N | 43 to 45
97 | Cc1ccc(C(=O)NCC(=O)O)cc1C | 160 to 162
98 | O=S(=O)(c1cccc(F)c1)N1CCNCC1 | 97 to 99
99 | CC(C)(C)c1ccc(C(O)CN)cc1 (stereo unspecified) | 125 to 127
100 | OCc1ncc(Br)s1 | 73 to 75

Row | SMILES | melting point [°C]
101 | Cc1cccc(C(=O)O)c1-n1cccc1 | 127 to 129
102 | CCC(=O)Cc1ccc(Cl)cc1Cl | 37 to 39
103 | O=C(CN1CCNCC1)NC1CCCCC1 | 99 to 101
104 | N#Cc1ccc(Nc2cccc(C(=O)O)c2)cc1 | 247 to 249
105 | Nc1nc(-c2ccccc2C(F)(F)F)cs1 | 115 to 117
106 | O=C(O)c1ccc(Cl)c(S(=O)(=O)N2CCc3ccccc32)c1 | 195 to 197
107 | Nc1cccc(-c2ccc3c(c2)CCO3)c1 | 64 to 66
108 | CC(=O)c1sc2nc(C)cc(C)c2c1N | 174 to 176
109 | COc1ccc(-n2c(C)cc(C(=O)CCl)c2C)cc1 | 91 to 95
110 | Cc1cc([N+](=O)[O-])c(Cl)cc1F | 43 to 45
111 | OCc1cc(C23CC4CC(CC(C4)C2)C3)n[nH]1 | 159 to 161
112 | O=C(O)c1cc(S(=O)(=O)N2CCOCC2)ccc1I | 183 to 185
113 | Cn1c(SCC(=O)O)nc2ccccc21 | 155 to 159
114 | CC(C)CC(C)(N)C(N)=O (stereo unspecified) | 71 to 73
115 | NC(=O)c1ncc(Br)cc1Br | 187 to 189
116 | O=S(=O)(Cl)C=Cc1ccc(Br)cc1 | 149 to 151
117 | CCS(=O)(=O)Nc1ccc(N)cc1OC | 129 to 131
118 | Nc1nc(=O)c2ccccc2s1 | 274 to 276
119 | CSc1nc2ncccc2o1 | 62 to 64
120 | O=C(O)Cn1cc([N+](=O)[O-])cn1 | 153 to 155
121 | Cc1cn(CC(=O)O)c2ccccc12 | 175 to 177
122 | O=C(NC1CCC(O)CC1)C(F)(F)F (stereo unspecified) | 186 to 188
123 | COc1ccnc(N)c1 | 99 to 101
124 | Cc1ccccc1-n1nnnc1S | 65 to 67
125 | CNc1nc(C)cc(C)c1C#N | 147 to 149

Row | SMILES | melting point [°C]
126 | NC(=S)C1CCCO1 (stereo unspecified) | 80 to 82
127 | NCc1ccc(N2CCOCC2)c(F)c1 | 36 to 38
128 | Cc1ccc2c(c1)c(C=O)c(C)n2C | 104 to 106
129 | CC(C)(C)OC(=O)Nc1ccc(C(=O)O)cc1O | 179 to 181
130 | Nc1cccc(S(=O)(=O)Nc2cn[nH]c2)c1 | 194 to 196
131 | COCCn1c(C(=O)O)cc2ccccc21 | 139 to 141
132 | COc1ccc(CN2CCNCC2)cc1OC | 27 to 40
133 | COc1ccc(C2C(CO)CC(=O)N2C)cc1 (stereo unspecified) | 82 to 84
134 | Cc1cc(Cl)cc2cc(C#N)oc12 | 113 to 115
135 | Nc1cc([N+](=O)[O-])ccc1C(=O)O | 257 to 259
136 | Cn1ccnc1C(O)C1CCNCC1 (stereo unspecified) | 207 to 209
137 | O=C(O)CCc1nnc(-c2cccnc2)o1 | 197 to 199
138 | O=Cc1ccc(Br)nc1 | 104 to 110
139 | Cc1cnc(NC(=O)c2ccc(Br)o2)s1 | 190 to 192
140 | CC(C)(C)OC(=O)Nc1ccc(C(=O)O)c(Cl)c1 | 169 to 171
141 | O=C(c1cccnc1O)N1CCCNCC1 | 157 to 159
142 | CC(C)(C(=O)NO)c1ccccc1 | 144 to 146
143 | NC(CC(=O)Nc1ccccc1)=NO | 156 to 158
144 | NC(=S)Nc1cccc2ncccc12 | 223 to 225
145 | Cn1c(-c2ccccc2)cnc1S | 180 to 182
146 | Cc1ccnc(N)c1N | 111 to 113
